Drawing on PubChem BioAssay (NCI), this text covers TGI for 15 compounds.

Some test systems named below: HCT-116 colon; HL-60(TB) leukemia; HT29 colon; K-562 leukemia; KM12 colon; NCI-H23 lung; NCI/ADR-RES ovarian; OVCAR-3 ovarian; SF-268 CNS; SF-295 CNS; SF-539 CNS; SK-MEL-2 melanoma; UO-31 renal; OVCAR-4 ovarian; CCRF-CEM leukemia.
Common to all, as to test: NCI anticancer screen, dose series, 48 h

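96-well plates; 48 h exposure; 5 concentrations. Endpoints by linear interpolation between flanking doses. Not reached: highest tested concentration assigned. The concentration for full growth arrest is given as TGI.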

Turning to `CC(C)=Cc1cc(C)c2c3c(c(O)c(O)c(C)c13)C(C)=CC2=O`, the TGI in the assay with HCT-116 colon was 37.7 µM; in the assay on HL-60(TB) leukemia, 67 µM; in the assay with HT29 colon, 32.1 µM; in the assay with K-562 leukemia, above 100 µM; with KM12 colon it was 45.8 µM; in the assay with NCI-H23 lung, 64.5 µM. Also, the TGI with NCI/ADR-RES ovarian was determined as 81.5 µM; with OVCAR-3 ovarian it was 52.7 µM; in the assay with SF-268 CNS, 60.3 µM; in the assay on SF-295 CNS, 48.6 µM; in the assay with SF-539 CNS, 71.6 µM; with SK-MEL-2 melanoma it was 44.2 µM. This compound also registered a TGI in the assay with UO-31 renal above 100 µM.
With `O=C1c2c(O)cc(O)cc2C(C2OC(CO)C(O)C(O)C2O)c2cc(CO)cc(O)c21` (centres undefined), the TGI in the assay with HCT-116 colon, in the assay with HL-60(TB) leukemia, in the assay on HT29 colon, with K-562 leukemia, in the assay on NCI-H23 lung and in the assay with NCI/ADR-RES ovarian was above 100 µM each time. Besides, the TGI with OVCAR-3 ovarian, in the assay on OVCAR-4 ovarian, with SF-268 CNS, with SF-295 CNS and with UO-31 renal was above 100 µM throughout.
In the case of `Cc1c(O)c(OC2OC(CO)C(O)C(O)C2O)cc2c1CC[C@@H]1C2(C)C(=O)C[C@]2(C)[C@@H]([C@@](C)(O)C3CCC(C)(C)O3)[C@H](O)C[C@@]12C` (some centres undefined), the TGI with CCRF-CEM leukemia, in the assay with HCT-116 colon, in the assay with HT29 colon, in the assay with K-562 leukemia, in the assay on KM12 colon and with NCI-H23 lung was above 100 µM in each case. Further, the TGI in the assay with NCI/ADR-RES ovarian, in the assay on OVCAR-3 ovarian, in the assay on OVCAR-4 ovarian, in the assay on SF-268 CNS, with SF-295 CNS and in the assay with SF-539 CNS was above 100 µM each time. The TGI in the assay on SK-MEL-2 melanoma and in the assay on UO-31 renal was above 100 µM each time.
For the compound `COC(=O)CCC1=NCC(C)(C)O1`, the TGI with CCRF-CEM leukemia, in the assay on HCT-116 colon, in the assay with HT29 colon, with KM12 colon, with NCI-H23 lung and in the assay with NCI/ADR-RES ovarian was above 10 µM throughout. Also, the TGI in the assay on OVCAR-3 ovarian, in the assay with OVCAR-4 ovarian, with SF-268 CNS, in the assay on SF-295 CNS, in the assay with SF-539 CNS and in the assay with SK-MEL-2 melanoma was above 10 µM each time. In the assay with UO-31 renal, the TGI was above 10 µM.
In the case of `Cc1ccc(S(=O)(=O)NC(=O)Nc2cccc(S(N)(=O)=O)c2)cc1`, the TGI with HCT-116 colon, with HL-60(TB) leukemia, with HT29 colon, with K-562 leukemia, in the assay with KM12 colon and in the assay on NCI-H23 lung was above 100 µM each time. The TGI in the assay with NCI/ADR-RES ovarian, in the assay with OVCAR-3 ovarian, in the assay with OVCAR-4 ovarian, with SF-268 CNS, in the assay with SF-295 CNS and in the assay with SF-539 CNS was above 100 µM in each case. Also, the TGI with SK-MEL-2 melanoma and with UO-31 renal was above 100 µM in each case.
For the compound `CN(C)CCCNc1ccc2nnn3c4ccc(OC(=O)c5ccccc5)cc4c(=O)c1c23`, the TGI in the assay with CCRF-CEM leukemia was found to be 7.98 µM; in the assay on HCT-116 colon, 24.7 µM; with HT29 colon, 22.2 µM; with K-562 leukemia, 4.49 µM; in the assay with KM12 colon, 23.3 µM; with NCI-H23 lung, 32.2 µM. Also, the TGI with NCI/ADR-RES ovarian came out at 37.9 µM; in the assay with OVCAR-3 ovarian, 24.9 µM; in the assay with OVCAR-4 ovarian it was 11.7 µM; in the assay on SF-268 CNS, 25.6 µM; in the assay on SF-295 CNS, 24.3 µM; in the assay on SF-539 CNS it was 22.7 µM. Besides, the TGI in the assay with SK-MEL-2 melanoma stood at 32.9 µM; in the assay with UO-31 renal, 20.8 µM.
In the case of `Cn1nc2ccc([N+](=O)[O-])cc2[n+]1[O-]`, the TGI in the assay with CCRF-CEM leukemia, in the assay with HCT-116 colon, in the assay with HT29 colon, in the assay on K-562 leukemia, in the assay on KM12 colon and in the assay on NCI-H23 lung was above 100 µM throughout. Moreover, the TGI with NCI/ADR-RES ovarian, in the assay on OVCAR-3 ovarian, with OVCAR-4 ovarian, in the assay on SF-295 CNS, in the assay with SF-539 CNS and with SK-MEL-2 melanoma was above 100 µM in each case. This compound also returned a TGI with UO-31 renal above 100 µM.
With `COc1cc2oc(=O)cc(C)c2c(OC)c1O`, the TGI with CCRF-CEM leukemia, with HCT-116 colon, in the assay with HT29 colon, in the assay with K-562 leukemia, in the assay with KM12 colon and in the assay with NCI-H23 lung was above 100 µM in each case. Moreover, the TGI in the assay on NCI/ADR-RES ovarian, in the assay on OVCAR-3 ovarian, in the assay on OVCAR-4 ovarian, in the assay on SF-268 CNS, in the assay on SF-295 CNS and with SF-539 CNS was above 100 µM each time. The TGI in the assay on SK-MEL-2 melanoma and in the assay on UO-31 renal was above 100 µM in each case.
Regarding `CN1CC(c2ccccc2)C(O)(C2(c3ccccc3)CN(C)CC(c3ccccc3)C2=O)C(c2ccccc2)C1` (centres undefined), the TGI in the assay with HCT-116 colon, in the assay with HL-60(TB) leukemia, in the assay with HT29 colon, with K-562 leukemia, with KM12 colon and in the assay on NCI-H23 lung was above 100 µM each time. Besides, the TGI in the assay on NCI/ADR-RES ovarian, in the assay with OVCAR-3 ovarian, in the assay with OVCAR-4 ovarian, with SF-268 CNS, with SF-295 CNS and in the assay with SF-539 CNS was above 100 µM throughout. Moreover, the TGI with SK-MEL-2 melanoma and in the assay with UO-31 renal was above 100 µM each time.
Regarding `COC(=O)C1CCC(=O)N1CN(C(C)=O)c1cc(OC)ccc1OC` (centres undefined), the TGI in the assay with HCT-116 colon, with HL-60(TB) leukemia, in the assay on HT29 colon, in the assay with K-562 leukemia, with KM12 colon and in the assay on NCI-H23 lung was above 100 µM in each case. The TGI with NCI/ADR-RES ovarian, in the assay with OVCAR-3 ovarian, with OVCAR-4 ovarian, in the assay on SF-268 CNS, with SF-295 CNS and in the assay on SF-539 CNS was above 100 µM throughout. For the same compound, the TGI in the assay with SK-MEL-2 melanoma and in the assay on UO-31 renal was above 100 µM in each case.
`Cn1c2c(c3ccccc31)CCN=C2C1CCCOC1=O` (centres undefined): the TGI in the assay on HCT-116 colon, in the assay with HL-60(TB) leukemia, with HT29 colon, with KM12 colon, in the assay on NCI/ADR-RES ovarian and with OVCAR-3 ovarian was above 100 µM each time. Also, the TGI with OVCAR-4 ovarian, with SF-268 CNS, with SF-539 CNS, in the assay on SK-MEL-2 melanoma and in the assay with UO-31 renal was above 100 µM in each case.
Consider `C=C1[C@H]2O[C@H]2[C@@H](OC(C)=O)[C@@]2(C)[C@@H](OC(C)=O)C[C@@H](OC(=O)CCC)[C@@](C)(O)[C@@H]2[C@@H](OC(C)=O)[C@]2(O)[C@@H](C)C(=O)O[C@H]2[C@H]1Cl`, for which the TGI with HCT-116 colon, with HL-60(TB) leukemia, in the assay with HT29 colon, in the assay on K-562 leukemia, in the assay on KM12 colon and in the assay on NCI-H23 lung was above 100 µM in each case. Besides, the TGI with NCI/ADR-RES ovarian, in the assay on OVCAR-3 ovarian, in the assay on OVCAR-4 ovarian, in the assay with SF-268 CNS, in the assay on SF-295 CNS and with SF-539 CNS was above 100 µM throughout. The TGI with SK-MEL-2 melanoma and in the assay on UO-31 renal was above 100 µM each time.
With `O=[N+]([O-])C1=Cc2cc(Cl)ccc2OC1c1cccc2ccccc12` (centres undefined), the TGI in the assay with HCT-116 colon is 0.355 µM; in the assay on HL-60(TB) leukemia, above 100 µM; in the assay with HT29 colon, 1.79 µM; with K-562 leukemia, 5.68 µM; in the assay with KM12 colon it was 3.5 µM; in the assay with NCI-H23 lung, 5.46 µM. In addition, the TGI was above 22.3 µM in the assay with NCI/ADR-RES ovarian; 2.95 µM in the assay with OVCAR-3 ovarian; 3.09 µM in the assay on OVCAR-4 ovarian; 3.29 µM with SF-268 CNS; 6.19 µM with SF-295 CNS; 3.13 µM in the assay with SK-MEL-2 melanoma. In the assay on UO-31 renal, this compound came in with a TGI of 2.51 µM.
Consider `O=C1CNC(=O)/C(=C/c2c[nH]c3ccccc23)N1`, for which the TGI in the assay with HCT-116 colon, in the assay with HL-60(TB) leukemia, with HT29 colon, in the assay on K-562 leukemia, in the assay on KM12 colon and in the assay with NCI-H23 lung was above 100 µM throughout. For the same compound, the TGI in the assay on NCI/ADR-RES ovarian, in the assay with OVCAR-3 ovarian, with OVCAR-4 ovarian, in the assay with SF-268 CNS, with SF-295 CNS and in the assay with SK-MEL-2 melanoma was above 100 µM throughout. In the assay on UO-31 renal, the TGI was above 100 µM.
For the compound `CC[C@H](C)C1=C(OC(C)=O)[N@+]2([O-])Oc3ccc(-c4c(O)c(O)c(-c5ccc(OC(C)=O)cc5)c(OC(C)=O)c4OC(C)=O)cc3O[C@]2([C@@H](C)CC)C(=O)N1O`, the TGI in the assay with HCT-116 colon was 19.5 µM; in the assay on HL-60(TB) leukemia, above 50 µM; in the assay on HT29 colon it was above 50 µM; with K-562 leukemia, 29.2 µM; in the assay on KM12 colon, above 50 µM; in the assay on NCI-H23 lung, above 50 µM. Besides, the TGI in the assay on NCI/ADR-RES ovarian is above 50 µM; in the assay with OVCAR-3 ovarian, 37.5 µM; with OVCAR-4 ovarian, 26.9 µM; in the assay with SF-268 CNS it was above 50 µM; with SF-295 CNS, above 50 µM; with SF-539 CNS, above 50 µM. In addition, the TGI in the assay with SK-MEL-2 melanoma and with UO-31 renal was above 50 µM in each case.
